From patent publication US20070202185A1, “Microencapsulated Delivery Vehicles Having Fugitive Layers” (KIMBERLY-CLARK WORLDWIDE, INC., priority 2005, published 2007)
Like-named read-outs stand apart in the source and are kept apart here.

Test system: Methicillin-resistant Staphylococcus aureus
Conditions: 0.005% PHMB versus no PHMB
Experimental: This Example utilized 1.5-milliliter tubes containing a 1-milliliter blend of phosphate-buffered saline (pH 7.2) and 5% (w/v) bovine serum albumin soil. The tubes were placed in electric heat blocks set for 22° C., 30° C., 40° C. and 50° C., respectively. The tubes remained in the electric heat blocks for approximately 10 minutes.
After 10 minutes, 0.005% (by weight) active polyhexamehtylene biguanide (PHMB) (commercially available as Cosmocil® CQ from Arch Biocides, Inc., United Kingdom) was added to two tubes at each temperature level. Duplicate tubes without PHMB at each temperature were also made.
The tubes were then vortexed and Methicillin-resistant Staphylococcus aureus (approximately 1×10^5 colony forming units (CFU)) was then added to each tube. All of the tubes were then placed back into the heat blocks at their respective temperatures.
Following a 10-minute contact time, 0.1 milliliters of each sample was transferred to 0.9 milliliters letheen broth to neutralize the PHMB activity. The letheen samples were then plated in duplicate on Tryptic Soy agar plates using a WASP2 spiral plater (commercially available from Don Whitley Scientific, Ltd., Yorkshire, United Kingdom). The plates were inverted and incubated at 37±2° C. for 48 hours.
After 48 hours, the plates were evaluated using a total plate count to determine the biocidal efficacy of each sample.

polyhexamethylene biguanide [PHMB]
LOG10 Reduction (22° C.): 2.1
LOG10 Reduction (30° C.): 2.8
LOG10 Reduction (40° C.): 3.5
LOG10 Reduction (50° C.): >3.5
